According to PMC9814781, “Structure-based design of a dual-warhead covalent inhibitor of FGFR4” (Communications Chemistry, 2022):

Experiments:
Assay in all cases: Kinase selectivity profiling
IKKε(IKBKE) = IKKε(IKBKE) (Homo sapiens, UniProt Q14164)
Her4(ERBB4) = Her4(ERBB4) (Homo sapiens, UniProt Q15303)
p38δ = p38δ (Homo sapiens, UniProt O15264)
EPHB3 = EPHB3 (Homo sapiens, UniProt P54753)
CSK = CSK (Homo sapiens, UniProt P41240)
EPHA2 = EPHA2 (Homo sapiens, UniProt P29317)
EPHB2 = EPHB2 (Homo sapiens, UniProt P29323)
MUSK = MUSK (Homo sapiens, UniProt O15146)
TRKC(NTRK3) = TRKC(NTRK3) (Homo sapiens, UniProt Q16288)
CDK2/CycA2 = CDK2/CycA2 (Homo sapiens, UniProt P24941)
DCAMKL2 = DCAMKL2 (Homo sapiens, UniProt Q8N568)
MER = MER (Homo sapiens, UniProt Q12866)
CDK9/CycK = CDK9/CycK (Homo sapiens, UniProt P50750)
MST2 = MST2 (Homo sapiens, UniProt Q13188)
AurA = AurA (Homo sapiens, UniProt O14965)
TNIK = TNIK (Homo sapiens, UniProt Q9UKE5)
SGK = SGK (Homo sapiens, UniProt O00141)
FYNb = FYNb (Homo sapiens, UniProt P06241)
SYK = SYK (Homo sapiens, UniProt P43405)
CLK1 = CLK1 (Homo sapiens, UniProt P49759)
CDK5/p35NCK = CDK5/p35NCK (Homo sapiens, UniProt Q00535)
CDK2/CycE1 = CDK2/CycE1 (Homo sapiens, UniProt P24941)
ZAP70 = ZAP70 (Homo sapiens, UniProt P43403)
Erk2 = Erk2 (Homo sapiens, UniProt P28482)
CHK2 = CHK2 (Homo sapiens, UniProt O96017)
ALK4 = ALK4 (Homo sapiens, UniProt P36896)
TAOK1 = TAOK1 (Homo sapiens, UniProt Q7L7X3)
NEK9 = NEK9 (Homo sapiens, UniProt Q8TD19)
HER2 = HER2 (Homo sapiens, UniProt P04626)
LYNb = LYNb (Homo sapiens, UniProt P07948)
DDR2 = DDR2 (Homo sapiens, UniProt Q16832)
RSK4 = RSK4 (Homo sapiens, UniProt Q9UK32)
CK1α(CSNK1A1) = CK1α(CSNK1A1) (Homo sapiens, UniProt P48729)
BRAF[V600E] = BRAF[V600E] (Homo sapiens, UniProt P15056, V600E)
HIPK1 = HIPK1 (Homo sapiens, UniProt Q86Z02)
ROCK2 = ROCK2 (Homo sapiens, UniProt O75116)
EPHB1 = EPHB1 (Homo sapiens, UniProt P54762)
TRKA = TRKA (Homo sapiens, UniProt P04629)
ROCK1 = ROCK1 (Homo sapiens, UniProt Q13464)
NEK1 = NEK1 (Homo sapiens, UniProt Q96PY6)

EPHA2, sequence (P29317 24-976): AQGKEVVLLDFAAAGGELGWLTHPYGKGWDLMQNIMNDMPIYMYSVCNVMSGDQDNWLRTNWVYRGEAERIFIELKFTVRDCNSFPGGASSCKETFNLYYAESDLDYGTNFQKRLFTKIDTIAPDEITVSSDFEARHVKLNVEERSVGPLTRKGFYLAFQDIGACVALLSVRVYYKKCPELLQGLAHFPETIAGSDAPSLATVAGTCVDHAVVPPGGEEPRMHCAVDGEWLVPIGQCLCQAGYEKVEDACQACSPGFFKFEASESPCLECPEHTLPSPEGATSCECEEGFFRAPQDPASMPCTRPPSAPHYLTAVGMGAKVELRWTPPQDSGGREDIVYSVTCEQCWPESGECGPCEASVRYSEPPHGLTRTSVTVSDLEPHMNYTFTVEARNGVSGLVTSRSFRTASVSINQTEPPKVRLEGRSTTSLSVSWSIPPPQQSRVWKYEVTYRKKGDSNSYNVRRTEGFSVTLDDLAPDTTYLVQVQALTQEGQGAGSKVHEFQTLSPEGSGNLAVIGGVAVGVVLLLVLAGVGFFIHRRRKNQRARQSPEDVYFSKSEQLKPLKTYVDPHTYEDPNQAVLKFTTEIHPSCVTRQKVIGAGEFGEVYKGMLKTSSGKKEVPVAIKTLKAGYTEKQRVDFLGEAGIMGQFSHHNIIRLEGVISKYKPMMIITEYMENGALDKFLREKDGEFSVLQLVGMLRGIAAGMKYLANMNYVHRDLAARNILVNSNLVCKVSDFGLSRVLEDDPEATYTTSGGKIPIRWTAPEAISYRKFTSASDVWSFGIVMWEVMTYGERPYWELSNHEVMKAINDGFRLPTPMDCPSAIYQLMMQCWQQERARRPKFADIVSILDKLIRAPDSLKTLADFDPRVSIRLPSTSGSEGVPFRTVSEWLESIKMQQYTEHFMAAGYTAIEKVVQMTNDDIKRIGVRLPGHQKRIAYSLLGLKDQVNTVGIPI
MST2, sequence (Q13188 whole entry): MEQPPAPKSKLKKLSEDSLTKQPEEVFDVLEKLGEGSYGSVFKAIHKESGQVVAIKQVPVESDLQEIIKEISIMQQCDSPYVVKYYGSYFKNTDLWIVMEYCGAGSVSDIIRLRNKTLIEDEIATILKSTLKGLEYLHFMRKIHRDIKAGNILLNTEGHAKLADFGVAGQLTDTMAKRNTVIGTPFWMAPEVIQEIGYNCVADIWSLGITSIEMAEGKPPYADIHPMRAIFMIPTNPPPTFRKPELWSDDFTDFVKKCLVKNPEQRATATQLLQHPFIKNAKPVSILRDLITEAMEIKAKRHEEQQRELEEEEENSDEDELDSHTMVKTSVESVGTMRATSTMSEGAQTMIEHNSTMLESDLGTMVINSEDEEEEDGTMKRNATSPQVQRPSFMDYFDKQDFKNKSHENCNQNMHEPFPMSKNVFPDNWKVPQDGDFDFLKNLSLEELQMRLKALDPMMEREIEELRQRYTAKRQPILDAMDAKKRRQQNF
LYNb, sequence (P07948 1-491 isoform P07948-2): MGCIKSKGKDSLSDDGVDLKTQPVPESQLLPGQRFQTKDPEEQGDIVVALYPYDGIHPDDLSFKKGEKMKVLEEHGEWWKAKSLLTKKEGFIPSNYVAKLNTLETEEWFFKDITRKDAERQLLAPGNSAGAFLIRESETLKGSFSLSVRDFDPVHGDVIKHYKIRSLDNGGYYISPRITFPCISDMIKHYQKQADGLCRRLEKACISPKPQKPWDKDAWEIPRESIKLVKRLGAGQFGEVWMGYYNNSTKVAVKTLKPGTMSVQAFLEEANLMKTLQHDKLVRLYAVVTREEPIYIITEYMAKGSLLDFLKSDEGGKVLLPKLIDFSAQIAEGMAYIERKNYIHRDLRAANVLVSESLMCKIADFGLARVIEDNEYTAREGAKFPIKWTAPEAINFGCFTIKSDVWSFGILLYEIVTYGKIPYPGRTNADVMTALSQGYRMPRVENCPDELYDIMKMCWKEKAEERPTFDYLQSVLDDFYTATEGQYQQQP
HER2, sequence (P04626 23-1255): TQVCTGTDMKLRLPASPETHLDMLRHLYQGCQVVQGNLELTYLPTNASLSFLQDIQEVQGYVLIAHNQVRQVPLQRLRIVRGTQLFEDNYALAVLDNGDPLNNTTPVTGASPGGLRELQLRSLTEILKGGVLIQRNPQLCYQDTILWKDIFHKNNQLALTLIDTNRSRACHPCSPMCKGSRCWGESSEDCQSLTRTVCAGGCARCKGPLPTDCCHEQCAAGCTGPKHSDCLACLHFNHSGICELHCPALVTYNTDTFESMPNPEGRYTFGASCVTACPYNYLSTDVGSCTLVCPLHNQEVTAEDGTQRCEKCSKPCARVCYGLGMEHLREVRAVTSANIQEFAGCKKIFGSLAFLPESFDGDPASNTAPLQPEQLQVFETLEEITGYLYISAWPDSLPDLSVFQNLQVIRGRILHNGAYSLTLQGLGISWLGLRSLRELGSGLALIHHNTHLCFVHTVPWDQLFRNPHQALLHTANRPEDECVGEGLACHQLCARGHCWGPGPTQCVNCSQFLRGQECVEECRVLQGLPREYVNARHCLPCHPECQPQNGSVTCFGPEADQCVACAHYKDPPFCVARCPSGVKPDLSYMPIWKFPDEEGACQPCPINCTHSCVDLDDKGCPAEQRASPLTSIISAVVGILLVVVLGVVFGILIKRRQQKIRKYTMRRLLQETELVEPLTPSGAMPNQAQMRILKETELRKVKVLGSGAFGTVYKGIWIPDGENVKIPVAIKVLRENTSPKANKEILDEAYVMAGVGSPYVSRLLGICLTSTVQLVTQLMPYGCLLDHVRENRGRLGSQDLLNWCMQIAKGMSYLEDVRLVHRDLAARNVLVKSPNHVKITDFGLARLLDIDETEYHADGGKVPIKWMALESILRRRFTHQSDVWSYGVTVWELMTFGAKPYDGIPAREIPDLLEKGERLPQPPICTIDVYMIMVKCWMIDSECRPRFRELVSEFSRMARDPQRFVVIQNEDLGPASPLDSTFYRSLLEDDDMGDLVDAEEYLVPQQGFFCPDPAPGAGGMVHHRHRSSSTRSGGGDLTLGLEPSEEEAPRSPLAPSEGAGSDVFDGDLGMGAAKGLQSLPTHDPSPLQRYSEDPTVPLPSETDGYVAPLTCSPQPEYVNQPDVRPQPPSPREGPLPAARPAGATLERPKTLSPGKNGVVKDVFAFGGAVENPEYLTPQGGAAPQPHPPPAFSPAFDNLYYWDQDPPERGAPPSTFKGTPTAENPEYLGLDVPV
CHK2, sequence (O96017 whole entry): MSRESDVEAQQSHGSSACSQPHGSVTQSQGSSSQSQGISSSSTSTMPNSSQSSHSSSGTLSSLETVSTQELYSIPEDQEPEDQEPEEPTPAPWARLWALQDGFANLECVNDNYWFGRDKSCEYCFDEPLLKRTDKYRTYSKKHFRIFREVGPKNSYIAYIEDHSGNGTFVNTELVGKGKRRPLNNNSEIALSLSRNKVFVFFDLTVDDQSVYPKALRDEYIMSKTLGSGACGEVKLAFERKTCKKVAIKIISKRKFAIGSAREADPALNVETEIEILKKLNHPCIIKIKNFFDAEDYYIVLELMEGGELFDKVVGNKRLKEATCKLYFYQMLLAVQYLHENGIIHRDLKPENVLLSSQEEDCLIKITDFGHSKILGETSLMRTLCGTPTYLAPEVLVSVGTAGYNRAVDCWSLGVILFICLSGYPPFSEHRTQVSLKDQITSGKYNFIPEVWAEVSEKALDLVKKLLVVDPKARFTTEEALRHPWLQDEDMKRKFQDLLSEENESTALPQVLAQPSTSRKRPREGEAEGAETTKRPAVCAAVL
DDR2, sequence (Q16832 22-855): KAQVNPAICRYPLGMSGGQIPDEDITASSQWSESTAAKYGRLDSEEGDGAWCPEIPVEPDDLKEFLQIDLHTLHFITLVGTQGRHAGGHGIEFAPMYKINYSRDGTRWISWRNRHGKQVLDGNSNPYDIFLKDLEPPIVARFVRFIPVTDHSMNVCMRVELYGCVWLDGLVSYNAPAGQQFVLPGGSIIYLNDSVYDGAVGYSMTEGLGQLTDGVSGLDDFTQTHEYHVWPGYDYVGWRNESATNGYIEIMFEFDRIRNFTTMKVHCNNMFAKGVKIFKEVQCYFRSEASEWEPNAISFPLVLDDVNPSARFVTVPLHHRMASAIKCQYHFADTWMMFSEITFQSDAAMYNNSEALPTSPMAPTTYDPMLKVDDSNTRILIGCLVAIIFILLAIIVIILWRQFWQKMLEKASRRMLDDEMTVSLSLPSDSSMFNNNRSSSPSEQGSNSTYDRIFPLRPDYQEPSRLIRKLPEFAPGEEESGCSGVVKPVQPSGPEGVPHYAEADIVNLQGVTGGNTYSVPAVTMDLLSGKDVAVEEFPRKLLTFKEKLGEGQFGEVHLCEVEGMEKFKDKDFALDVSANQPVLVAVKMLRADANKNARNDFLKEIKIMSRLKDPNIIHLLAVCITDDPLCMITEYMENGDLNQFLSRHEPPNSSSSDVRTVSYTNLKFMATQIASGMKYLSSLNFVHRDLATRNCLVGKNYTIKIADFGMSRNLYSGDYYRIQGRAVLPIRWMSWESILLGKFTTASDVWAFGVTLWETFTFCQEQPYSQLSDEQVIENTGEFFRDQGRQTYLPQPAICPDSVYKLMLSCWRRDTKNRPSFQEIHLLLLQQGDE
AurA, sequence (O14965 whole entry): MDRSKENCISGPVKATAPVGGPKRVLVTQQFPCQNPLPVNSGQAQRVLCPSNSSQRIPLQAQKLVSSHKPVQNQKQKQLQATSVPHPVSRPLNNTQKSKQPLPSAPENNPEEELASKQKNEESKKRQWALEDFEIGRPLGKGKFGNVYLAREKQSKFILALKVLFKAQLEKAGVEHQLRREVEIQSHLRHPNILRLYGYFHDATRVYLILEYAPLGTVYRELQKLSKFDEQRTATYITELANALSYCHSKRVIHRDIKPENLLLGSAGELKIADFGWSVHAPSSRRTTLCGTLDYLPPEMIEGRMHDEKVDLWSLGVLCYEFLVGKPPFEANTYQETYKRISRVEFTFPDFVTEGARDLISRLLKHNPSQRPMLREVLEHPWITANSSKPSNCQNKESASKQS

C=CC(=O)Nc1ccccc1Nc1ncc2c(n1)N(CCCN1CCN(C(=O)C=C)CC1)C(=O)N(c1cc(OC)cc(OC)c1)C2 [CXF-009]
inhibition at 1 µM (IKKε(IKBKE)): 7.21%
inhibition at 1 µM (Her4(ERBB4)): 0.69%
inhibition at 1 µM (p38δ): 13.9%
inhibition at 1 µM (EPHB3): -0.82%
inhibition at 1 µM (CSK): 3.29%
inhibition at 1 µM (EPHA2): 2.12%
inhibition at 1 µM (EPHB2): -3.12%
inhibition at 1 µM (MUSK): -3.46%
inhibition at 1 µM (TRKC(NTRK3)): 8.57%
inhibition at 1 µM (CDK2/CycA2): -2.58%
inhibition at 1 µM (DCAMKL2): 18.9%
inhibition at 1 µM (MER): 3.59%
inhibition at 1 µM (CDK9/CycK): 0.11%
inhibition at 1 µM (MST2): -8.12%
inhibition at 1 µM (AurA): 15.4%
inhibition at 1 µM (TNIK): -13.4%
inhibition at 1 µM (SGK): 2.9%
inhibition at 1 µM (FYNb): -2.49%
inhibition at 1 µM (SYK): 13.6%
inhibition at 1 µM (CLK1): 1.48%
inhibition at 1 µM (CDK5/p35NCK): -0.87%
inhibition at 1 µM (CDK2/CycE1): 1.59%
inhibition at 1 µM (ZAP70): 11.8%
inhibition at 1 µM (Erk2): 0.94%
inhibition at 1 µM (CHK2): -3.02%
inhibition at 1 µM (ALK4): 0.23%
inhibition at 1 µM (TAOK1): -0.59%
inhibition at 1 µM (NEK9): 5.11%
inhibition at 1 µM (HER2): 10.7%
inhibition at 1 µM (LYNb): 7.62%
inhibition at 1 µM (DDR2): 2.15%
inhibition at 1 µM (RSK4): 0%
inhibition at 1 µM (CK1α(CSNK1A1)): 2.6%
inhibition at 1 µM (BRAF[V600E]): -1.68%
inhibition at 1 µM (HIPK1): -5.67%
inhibition at 1 µM (ROCK2): -2.53%
inhibition at 1 µM (EPHB1): -1.49%
inhibition at 1 µM (TRKA): 26.2%
inhibition at 1 µM (ROCK1): 5.09%
inhibition at 1 µM (NEK1): 1.39%
